Article PMC8822347, “Sustained Control of Pyruvate Carboxylase by the Essential Second Messenger Cyclic di-AMP in Bacillus subtilis” (mBio, 2022)

How the values were obtained:
[1] = biological target: T1, PC; pyruvate carboxylase (PycA) (Bacillus subtilis, UniProt Q9KWU4); experiment: malate dehydrogenase-coupled NADH oxidation, […] nm; type: biochemical
T1 construct: gene pyc; full length (1148 residues), C-terminal 6xHis (pET28a, pGP3458), from E. coli Rosetta(DE3), biotinylated with BirA; tetrameric

DarB [2] = biological target: DarB (Bacillus subtilis, UniProt O31698, L38F); settings: 20 °C; 10 µM DarB-L38F in cell, 100 µM c-di-AMP in syringe
DarB [3] = biological target: DarB (Bacillus subtilis, UniProt O31698); settings: 26 µM c-di-AMP, 2.6 µM DarB, 0.26 µM PC, 25 mM KHCO3, 2.5 mM pyruvate, 0.1 mM acetyl-CoA; c-di-AMP acts on DarB, not on PC
[4] = biological target: T2, PC-6×His (pyruvate carboxylase), biotinylated (B. subtilis, UniProt Q9KWU4 1-1148, biotin (naturally biotinylated or biotinylated in vitro with BirA)); experiment: pull-down; 2 nmol biotinylated PC-6×His or PC^CT+BCCP-6×His on 250 μl StrepTactin matrix with 15 nmol DarB, DarB^L38F or YlxR, overnight at 4°C; washed with dialysis buffer (10 mM Tris pH 7.8, 150 mM KCl, 6 mM β-mercaptoethanol, 5% glycerol); eluted with 7 mM biotin; Western blot, silver stain, mass spectrometry; also with DarB preincubated with c-di-AMP (150 nmol; less DarB bound) and with acetyl-CoA (more DarB …); settings: both partners purified
T2 construct: pyruvate carboxylase (PC), encoded by pycA, Bacillus subtilis 168; wild type; domains BC, CT, BCCP; also called His-PC; PycA; source: E. coli Rosetta(DE3) (pGP3458), purified (Ni-NTA, StrepTactin); biotinylated in vitro with purified BirA; not shown: 6×His, C-terminal, kept
T2 sequence (looked up): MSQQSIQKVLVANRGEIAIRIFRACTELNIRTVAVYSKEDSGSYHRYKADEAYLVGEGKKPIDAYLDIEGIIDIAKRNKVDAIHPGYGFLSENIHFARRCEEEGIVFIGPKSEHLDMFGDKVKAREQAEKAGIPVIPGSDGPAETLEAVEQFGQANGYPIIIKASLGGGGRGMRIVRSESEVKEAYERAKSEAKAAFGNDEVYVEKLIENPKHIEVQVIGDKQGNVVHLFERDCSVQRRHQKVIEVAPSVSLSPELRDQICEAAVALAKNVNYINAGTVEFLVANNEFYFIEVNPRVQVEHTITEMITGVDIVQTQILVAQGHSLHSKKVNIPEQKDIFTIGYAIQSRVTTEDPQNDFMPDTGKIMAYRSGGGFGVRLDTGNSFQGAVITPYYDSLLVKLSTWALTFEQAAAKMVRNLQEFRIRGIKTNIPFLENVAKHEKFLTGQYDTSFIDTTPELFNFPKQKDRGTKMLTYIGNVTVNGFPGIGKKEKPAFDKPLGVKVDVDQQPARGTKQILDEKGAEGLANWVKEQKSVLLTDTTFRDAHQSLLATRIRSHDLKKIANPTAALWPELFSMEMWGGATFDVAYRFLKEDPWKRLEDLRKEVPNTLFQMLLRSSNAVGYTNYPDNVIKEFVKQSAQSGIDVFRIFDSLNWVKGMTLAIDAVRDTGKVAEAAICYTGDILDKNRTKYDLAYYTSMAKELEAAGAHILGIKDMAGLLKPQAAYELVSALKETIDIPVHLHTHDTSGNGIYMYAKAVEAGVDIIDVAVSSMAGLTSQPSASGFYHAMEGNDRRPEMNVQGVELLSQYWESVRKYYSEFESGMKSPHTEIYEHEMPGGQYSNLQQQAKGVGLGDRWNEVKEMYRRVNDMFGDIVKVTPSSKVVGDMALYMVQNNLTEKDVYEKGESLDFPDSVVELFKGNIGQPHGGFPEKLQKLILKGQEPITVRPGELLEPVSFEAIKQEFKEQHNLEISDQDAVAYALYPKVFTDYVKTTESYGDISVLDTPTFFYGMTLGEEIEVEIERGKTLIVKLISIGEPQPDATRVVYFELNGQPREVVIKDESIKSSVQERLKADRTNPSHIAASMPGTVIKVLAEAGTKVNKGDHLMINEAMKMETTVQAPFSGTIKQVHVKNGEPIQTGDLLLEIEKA

purified protein = substrate: CC(=O)C(=O)O; experiment: purified protein; type: biochemical, Bacillus subtilis; settings: 0.1 mM acetyl-CoA, 2 mM ATP, 25 mM KHCO3, 5 mM MgCl2, 150 mM KCl, pH 7.8, 25 °C, no DarB

Chain of DarB (Bacillus subtilis, UniProt O31698) (O31698 whole entry): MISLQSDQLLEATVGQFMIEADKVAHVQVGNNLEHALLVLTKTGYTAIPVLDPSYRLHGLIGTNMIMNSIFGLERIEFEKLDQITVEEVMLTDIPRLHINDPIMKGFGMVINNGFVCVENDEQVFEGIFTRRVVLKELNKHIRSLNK

Question: How did the “malate dehydrogenase-coupled NADH oxidation, 340 nm” value ([1]; allosteric activator, 25 mM KHCO3, 2.5 mM pyruvate, pH 7.8, 25 °C, various acetyl-CoA concentrations) turn out when `CC(=O)SCCNC(=O)CCNC(=O)[C@H](O)C(C)(C)COP(=O)(O)OP(=O)(O)OC[C@H]1O[C@@H](n2cnc3c(N)ncnc32)[C@H](O)[C@@H]1OP(=O)(O)O` [acetyl-CoA] was run?
Answer: The value was “the activity of PC was strongly enhanced in the presence of acetyl-CoA”.

Question: How did the “malate dehydrogenase-coupled NADH oxidation, 340 nm” value ([1]; allosteric inhibitor, 16 mM aspartate with 0.1 mM acetyl-CoA, 2.5 mM pyruvate, DarB or BSA present) turn out when `N[C@@H](CC(=O)O)C(=O)O` [aspartate] was run?
Answer: The value was “DarB was no longer able to activate PC in the presence of aspartate”.

Question: With `Nc1ncnc2c1ncn2[C@@H]1O[C@@H]2COP(=O)(O)O[C@H]3[C@@H](O)[C@H](n4cnc5c(N)ncnc54)O[C@@H]3COP(=O)(O)O[C@H]2[C@H]1O` [c-di-AMP] as the molecule, how does the KD (DarB [2]) read?
Answer: Its KD is “the mutant protein binds c-di-AMP with a similar affinity as the wild-type protein”.

Question: What about the “activation by DarB inhibited to” value (DarB [3]) of the same molecule?
Answer: The value was 16%.

B1: DarB^L38F, purified, SUMO tag removed (natural protein, B. subtilis)
chain: MISLQSDQLLEATVGQFMIEADKVAHVQVGNNLEHALFVLTKTGYTAIPVLDPSYRLHGLIGTNMIMNSIFGLERIEFEKLDQITVEEVMLTDIPRLHINDPIMKGFGMVINNGFVCVENDEQVFEGIFTRRVVLKELNKHIRSLNK
notes: DarB, Bacillus subtilis 168, with Leu38 changed to Phe; also called DarB mutant L38F; the mutant protein; source: E. coli Rosetta(DE3) (pGP3481), purified (Ni-NTA; SUMO tag removed with SUMO protease); not shown: 6×His, N-terminal, cleaved; SUMO, N-terminal, cleaved
Question: Does B1 bind [4]?
Answer: Result: binds

B2: PC; pyruvate carboxylase (PycA) (Bacillus subtilis subsp. subtilis str. 168) (protein)
chain: MSQQSIQKVLVANRGEIAIRIFRACTELNIRTVAVYSKEDSGSYHRYKADEAYLVGEGKKPIDAYLDIEGIIDIAKRNKVDAIHPGYGFLSENIHFARRCEEEGIVFIGPKSEHLDMFGDKVKAREQAEKAGIPVIPGSDGPAETLEAVEQFGQANGYPIIIKASLGGGGRGMRIVRSESEVKEAYERAKSEAKAAFGNDEVYVEKLIENPKHIEVQVIGDKQGNVVHLFERDCSVQRRHQKVIEVAPSVSLSPELRDQICEAAVALAKNVNYINAGTVEFLVANNEFYFIEVNPRVQVEHTITEMITGVDIVQTQILVAQGHSLHSKKVNIPEQKDIFTIGYAIQSRVTTEDPQNDFMPDTGKIMAYRSGGGFGVRLDTGNSFQGAVITPYYDSLLVKLSTWALTFEQAAAKMVRNLQEFRIRGIKTNIPFLENVAKHEKFLTGQYDTSFIDTTPELFNFPKQKDRGTKMLTYIGNVTVNGFPGIGKKEKPAFDKPLGVKVDVDQQPARGTKQILDEKGAEGLANWVKEQKSVLLTDTTFRDAHQSLLATRIRSHDLKKIANPTAALWPELFSMEMWGGATFDVAYRFLKEDPWKRLEDLRKEVPNTLFQMLLRSSNAVGYTNYPDNVIKEFVKQSAQSGIDVFRIFDSLNWVKGMTLAIDAVRDTGKVAEAAICYTGDILDKNRTKYDLAYYTSMAKELEAAGAHILGIKDMAGLLKPQAAYELVSALKETIDIPVHLHTHDTSGNGIYMYAKAVEAGVDIIDVAVSSMAGLTSQPSASGFYHAMEGNDRRPEMNVQGVELLSQYWESVRKYYSEFESGMKSPHTEIYEHEMPGGQYSNLQQQAKGVGLGDRWNEVKEMYRRVNDMFGDIVKVTPSSKVVGDMALYMVQNNLTEKDVYEKGESLDFPDSVVELFKGNIGQPHGGFPEKLQKLILKGQEPITVRPGELLEPVSFEAIKQEFKEQHNLEISDQDAVAYALYPKVFTDYVKTTESYGDISVLDTPTFFYGMTLGEEIEVEIERGKTLIVKLISIGEPQPDATRVVYFELNGQPREVVIKDESIKSSVQERLKADRTNPSHIAASMPGTVIKVLAEAGTKVNKGDHLMINEAMKMETTVQAPFSGTIKQVHVKNGEPIQTGDLLLEIEKA
notes: full length (1148 residues), C-terminal 6xHis (pET28a, pGP3458), from E. coli Rosetta(DE3), biotinylated with BirA; tetrameric
Question: With B2 as the molecule, how does the Km (purified protein) read?
Answer: The Km was 230 µM.
